# Patent US20050171358A1 (priority 2002, published 2005)
# How the values were obtained:
# Phytophthora infestans = format: in vivo; settings: 125 ppm, 200 L/10 a spray on tomato (5 leaf stage), inoculated next day; diseased area rates of third to fifth true leaves after 3 days in green house, graded by Table 5
# [1] = test system: Pseudoperonospora cubensis; test: Effect test for cucumber downy mildew (Evaluation Example 4); format: in vivo; settings: 125 ppm, 200 L/10 a spray on cucumber (3 leaf stage), inoculated next day; diseased area rates of first and second true leaves after 3 days in green house, graded by Table 5
# Method: The active ingredient compound was diluted with water containing 0.01% Tween 20 to have a concentration of 125 ppm. […] Next day, a zoosporangium suspension of Pseudoperonospora cubensis which was the causative fungus of cucumber downy mildew was sprayed to inoculate.
# Pyricularia oryzae = format: in vivo; settings: 200 ppm spray on rice (Koshihikari, 3 leaf stage), inoculated next day; lesion numbers on third leaves after 7 days in green house, graded by Table 5
# [2] = test system: Colletotrichum lagenarium; settings: 200 ppm spray on cucumber (3 leaf stage), inoculated next day; lesion numbers on first and second leaves after 7 days in green house, graded by Table 5
Structure (SMILES),Evaluation (effect for tomato late blight) (Phytophthora infestans),Evaluation (effect for cucumber downy mildew) [1],Evaluation (effect for rice blast) (Pyricularia oryzae),Evaluation (effect for cucumber anthracnose) [2]
"O=C(COc1ccccc1)NCc1cc(CCl)no1 [I-65, N-[(3-chloromethyl-5-isoxazolyl)methyl]phenoxyacetamide]",4 (1˜5),2 (11˜20),,
"O=C(NCc1cc(CCl)no1)NC1CCCCC1 [II-105, 3-(3-chloromethyl-5-isoxazolyl)methyl-1-cyclohexylurea]",5 (0),4 (1˜5),2 (11˜20),
"O=C(NCc1cc(CCl)no1)NC1CCCC1 [II-107, 3-(3-chloromethyl-5-isoxazolyl)methyl-1-cyclopentylurea]",4 (1˜5),2 (11˜20),,
"O=C(NCc1cc(CBr)no1)NC1CCCCC1 [II-111, 3-(3-bromomethyl-5-isoxazolyl)methyl-1-cyclohexylurea]",5 (0),3 (6˜10),,
"O=C(NCc1cc(CI)no1)NC1CCCCC1 [II-115, 3-(3-iodomethyl-5-isoxazolyl)methyl-1-cyclohexylurea]",3 (6˜10),1 (21˜41),3 (6˜10),2 (11˜20)
"Cc1ccc(C(=O)NCc2cc(CCl)no2)cc1 [III-2, N-[(3-chloromethyl-5-isoxazolyl)methyl]-4-methylbenzamide]",5 (0),5 (0),4 (1˜5),4 (1˜5)
"COc1ccc(C(=O)NCc2cc(CCl)no2)cc1 [III-3, N-[(3-chloromethyl-5-isoxazolyl)methyl]-4-methoxy benzamide]",2 (11˜20),4 (1˜5),,
"Cc1ccc(-c2cc(CNC(=O)N3CCOCC3)on2)cc1 [III-204, N-{[3-(4-tolyl)-5-isoxazolyl]methyl}-4-morpholinecarboxamide]",,4 (1˜5),2 (11˜20),2 (11˜20)
"Cc1ccc(-c2cc(CNC(=O)C3CCCCC3)on2)cc1 [III-222, N-{[3-(4-tolyl)-5-isoxazolyl]methyl}cyclohexanecarboxamide]",,4 (1˜5),3 (6˜10),2 (11˜20)
"O=C(NCc1cc(CCl)no1)c1ccccc1 [III-226, N-[(3-chloromethyl-5-isoxazolyl)methyl]benzamide]",3 (6˜10),4 (1˜5),,
"O=C(NCc1cc(CCl)no1)c1ccc(Cl)cc1 [III-254, N-[(3-chloromethyl-5-isoxazolyl)methyl]-4-chlorobenzamide]",5 (0),3 (6˜10),,
"O=C(C=Cc1ccccc1)NCc1cc(CCl)no1 [III-266, N-[(3-chloromethyl-5-isoxazolyl)methyl]-β-phenylacrylamide]",1 (21˜41),,,
"O=C(NCc1cc(CCl)no1)c1ccc2ccccc2c1 [III-267, N-[(3-chloromethyl-5-isoxazolyl)methyl]-2-naphthalenecarboxamide]",5 (0),5 (0),,
"O=C(NCc1cc(CCl)no1)c1cccc2ccccc12 [III-268, N-[(3-chloromethyl-5-isoxazolyl)methyl]-1-naphthalenecarboxamide]",0 (41 or more),,,
"CCc1ccc(C(=O)NCc2cc(CCl)no2)cc1 [III-269, N-[(3-chloromethyl-5-isoxazolyl)methyl]-4-ethylbenzamide]",5 (0),5 (0),,
"O=C(NCc1cc(CCl)no1)c1ccc(OCCl)cc1 [III-270, N-[(3-chloromethyl-5-isoxazolyl)methyl]-4-chloromethyloxybenzamide]",2 (11˜20),,,
"O=C(NCc1cc(CCl)no1)c1ccc(Cl)cc1Cl [III-271, N-[(3-chloromethyl-5-isoxazolyl)methyl]-2,4-dichlorobenzamide]",1 (21˜41),,,
"O=C(NCc1cc(CCl)no1)c1ccc(Cl)c(Cl)c1 [III-272, N-[(3-chloromethyl-5-isoxazolyl)methyl]-3,4-dichlorobenzamide]",5 (0),3 (6˜10),,
"Cc1ccccc1C(=O)NCc1cc(CCl)no1 [III-273, N-[(3-chloromethyl-5-isoxazolyl)methyl]-2-methylbenzamide]",0 (41 or more),,,
"Cc1cccc(C(=O)NCc2cc(CCl)no2)c1 [III-274, N-[(3-chloromethyl-5-isoxazolyl)methyl]-3-methylbenzamide]",4 (1˜5),2 (11˜20),,
"O=C(NCc1cc(CCl)no1)c1cccc(Cl)c1 [III-277, N-[(3-chloromethyl-5-isoxazolyl)methyl]-3-chlorobenzamide]",4 (1˜5),2 (11˜20),,
"O=C(NCc1cc(CCl)no1)c1ccc([N+](=O)[O-])cc1 [III-278, N-[(3-chloromethyl-5-isoxazolyl)methyl]-4-nitrobenzamide]",4 (1˜5),2 (11˜20),,
"CS(=O)(=O)c1ccc(C(=O)NCc2cc(CCl)no2)c(Cl)c1 [III-279, N-[(3-chloromethyl-5-isoxazolyl)methyl]-2-chloro-4-methanesulfonylbenzamide]",5 (0),3 (6˜10),,
